Several values for one entry are separate records, joined by “and”; a condition that tells them apart may be missing. Identical values can stand only once. Entries after “also recorded” stand apart in the source; their conditions may differ. Ends that are not written are not given here.
Tests used:
[1] = system: Staphylococcus aureus (ATCC 48366); assay: Bacterial mortality on peptide-coated QCM-D sensors (LIVE/DEAD BacLight), S. aureus; type: cell-based; details: for mortality of S. aureus: 1 hour exposure to surface-bound peptide, PEG binding at 23° C; for bactericidal activity against S. aureus compared across tether lengths: C-CHY1 tethered via PEG 866, 2000 or 7500, 1 hour exposure
Protocol: (§1) Bacterial Strains and Culturing. Escherichia coli HB101 (ATCC 33694) and Staphylococcus aureus (ATCC 48366) were cultured overnight in Luria-Bertani broth (20 g/L). For QCM-D and toxicity studies, cells were harvested at the late logarithmic phase in their growth curve, as confirmed by absorbance measurements (OD(600)=0.7-1.0 arbitrary units) (Thermo Scientific USA, Waltham, Mass. USA). The cells were centrifuged at 1284×g (Centrific Thermo Scientific, Waltham, Mass. USA) and re-suspended in 0.01 M, pH 7.2 phosphate buffered saline (PBS) (Sigma Aldrich, St. Louis, Mo. USA) twice, and then diluted 100-fold to approximately 10^8 cfu/mL.
(§2) Changes in frequency (Δf, Hz) and dissipation (ΔD, ×10-6 Hz) at the 3rd, 5th, 7th, 9th and 11th overtones were monitored at a constant 23° C. in all chambers using a Q-Sense E4 QCM-D system (Biolin Scientific, Stockholm, Sweden). All flow rates for the solutions were at 0.1 mL/min unless otherwise noted, and all volumes given are on a per chamber basis. PBS/EDTA (pH 7.2) buffer was used to establish a stable baseline measurement. Maleimide PEG N-hydroxysuccinimide ester molecules (MAL-PEG-NHS) with molecular weights (MW) of 866 (ThermoScientific, Waltham Mass., USA), 2000, or 7500 (JenKem Technology USA Inc., Allen, Tex. USA) were purchased. These will be referred to as PEG 866, PEG 2000 and PEG 7500, respectively. One mL of 100 μM MAL-PEG-NHS was flowed through the QCM-D and subsequently incubated for 30 min. Crystals were then rinsed with 1.2 mL of the PBS/EDTA (pH 7.2) buffer. Similarly, 1.25 mL of 10 μM C-CHY1 solution was then flown over the sensors and allowed to incubate for 30 min. To rinse excess C-CHY1 off the surface and prepare for the introduction of 2 mL bacteria, a 45 min PBS rinse at 0.3 mL/min was first flowed through the QCM-D. The dilute bacterial solution was allowed to incubate for 1 hour, followed by a final 2 mL PBS (pH 7.2) rinse. The crystals were removed from the chambers and placed in individual petri dishes containing 0.85% (w/v) NaCl solution for bacterial viability testing.
QCM-D Control Experiments: Physical Adsorption of CHY1. Similarly, SiO2-coated sensors were used for physical adsorption of unmodified CHY1 and were prepared as described above. For this experiment there was no APTMS functionalization or PEG flow, thus, after cleaning, the crystals were placed immediately into the QCM-D, PBS (pH 7.2) was used to establish a baseline and 1.25 mL of 10 μM CHY1 solution was introduced. Then, flow was stopped and CHY1 was incubated for 30 min. The rest of the protocol described in the previous section was then followed, including the 0.3 mL/min PBS rinse, bacterial flow, bacterial incubation and final PBS rinse. The crystals were removed from the chambers and placed in individual petri dishes containing 0.85% (w/v) NaCl solution for bacterial viability testing. For the next type of control, crystals that had never been coated with APTMS were cleaned and placed into the QCM-D chambers without functionalization. Starting with a PBS rinse, the crystals were exposed to bacteria solution for 1 hour and then rinsed before imaging. For the APTMS control, crystals were cleaned and functionalized with APTMS. Then the procedure continued starting with a PBS rinse (pH 7.2), bacteria introduction, incubation, and a final rinse before imaging. […]
(§3) Bacterial Mortality. Bacterial mortality was determined immediately after the final rinse of the QCM-D experiment. […]

[2] = QCM-D mass attachment, layer thickness and areal mass of tether/peptide layers (Sauerbrey and Voigt-Kelvin); type: physicochemical; details: for Chrysophsin-1 attachment ng Voigt-Kelvin / Chrysophsin-1 attachment ng Sauerbrey: 10 μM peptide, 23° C; for Chrysophsin-1 attachment ng Voigt-Kelvin: Voigt-Kelvin viscoelastic model; for Chrysophsin-1 attachment ng Sauerbrey: mean of 3rd-11th overtones ± standard error; for C-CHY1 areal mass (ng/cm^2) Sauerbrey: Sauerbrey estimation divided by crystal surface area; for C-CHY1 areal mass (ng/cm^2) Voigt-Kelvin / PEG/C-CHY1 layer thickness (nm) Voigt-Kelvin: Voigt-Kelvin model; for C-CHY1 areal mass (ng/cm^2) Voigt-Kelvin: includes PEG spacer, attached C-CHY1 and trapped buffer; for PEG/C-CHY1 layer thickness (nm) Voigt-Kelvin: tether plus peptide film, or physically-adsorbed CHY1 film
Protocol: Referring to FIG. 1, the surface is functionalized with the anti-microbial peptide via a flexible linker molecule and exposed to bacteria in the QCM-D using QCM-D sensors as the substrate. Referring to FIG. 2 QCM-D was used to monitor covalent attachment in real-time of the PEG spacer molecule followed by introduction of the C-CHY1 peptide to the functionalized SiO2 surface (FIG. 2). According to the Sauerbrey calculation, the Δm due to PEG spacers is between 2 and 100 ng per crystal (Table 1, below; FIG. 3). The mass of PEG attached decreases with increasing tether length (FIG. 3). PEGylated surfaces show a rigid surface (ΔD values from +1×10^−6 to +2×10^−6 Hz) compared to the bulk fluid baseline, validating the use of Eqn. 1 and 2 for PEG layer calculations. When C-CHY1 is introduced, there is a rapid decrease of Δf corresponding to a Δm of 0.8 to 2.2 μg (Table 1) bound to the surface. This step is accompanied by a large increase in ΔD from near +2×10^−6 to +20×10^−6 Hz after the introduction of C-CHY1. Comparatively, CHY1 introduction leads to a Δf decrease corresponding a Δm of about 0.4 μg of CHY1 being physically-adsorbed on the surface.
Thus, parameters of the system were modeled using the Voigt-Kelvin extended viscoelastic model in Q-Tools software (Biolin Scientific, Stockholm, Sweden). This model corrects the Sauerbrey estimations for higher energy dissipation by adding terms to the Δf relation to mass (Eqn. 3) and ΔD relation to film rigidity (Eqn. 4).
Where ηL is the viscosity of the bulk liquid assumed to be water (kg/m·s); δL, and δf are the decay lengths of the acoustic wave in the bulk liquid and film (m), respectively; mq and mf […], respectively; ρf is the film density (kg/m^3). The layer was modeled to get numerical outputs for layer viscosity, density, and shear modulus (ηm, ρm, and μm), and film thickness. All overtones were modeled at once. The bulk liquid, predominantly PBS or PBS/EDTA, was assumed to have the same viscosity and density as water at 23° C. Model step size and output ranges were changed based on calculated theoretical values using estimated extended molecule size, and the lowest chi square value (χ^2) was taken. Once values of thickness (nm) and density (kg/m^3) were found with the model, the two were multiplied to calculate areal mass in ng/cm^2.
QCM-D: Covalent Linking of C-CHY1. SiO2-coated quartz crystal sensors from Biolin Scientific (Stockholm, Sweden) were used as immobilization platforms for the modified C-CHY1. Before use, SiO2 sensors were cleaned in the QCM-D at 40° C. using ethanol, DI water, 2% sodium dodecyl sulfate (w/v), DI water again, and then nitrogen dried. Lastly, sensor surfaces were treated for 2 min using an oxygen plasma cleaner (SPI Supplies, PA USA) to both clean and functionalize the surface. The SiO2 crystals were then silanized by submerging in a 10% (v/v) (3-Aminopropyl)-trimethoxysilane (APTMS) in methanol solution for 20 min. Each sensor was then rinsed twice thoroughly with methanol and DI water and placed in each QCM-D chamber.
Changes in frequency (Δf, Hz) and dissipation (ΔD, ×10-6 Hz) at the 3rd, 5th, 7th, 9th and 11th overtones were monitored at a constant 23° C. in all chambers using a Q-Sense E4 QCM-D system (Biolin Scientific, Stockholm, Sweden). All flow rates for the solutions were at 0.1 mL/min unless otherwise noted, and all volumes given are on a per chamber basis. PBS/EDTA (pH 7.2) buffer was used to establish a stable baseline measurement. Maleimide PEG N-hydroxysuccinimide ester molecules (MAL-PEG-NHS) with molecular weights (MW) of 866 (ThermoScientific, Waltham Mass., USA), 2000, or 7500 (JenKem Technology USA Inc., Allen, Tex. USA) were purchased. These will be referred to as PEG 866, PEG 2000 and PEG 7500, respectively. One mL of 100 μM MAL-PEG-NHS was flowed through the QCM-D and subsequently incubated for 30 min. Crystals were then rinsed with 1.2 mL of the PBS/EDTA (pH 7.2) buffer. […]

[3] = system: Escherichia coli HB101 (ATCC 33694); assay: Bacterial mortality on peptide-coated QCM-D sensors (LIVE/DEAD BacLight), E. coli; type: cell-based; details: for bactericidal activity against E. coli compared across tether lengths: C-CHY1 tethered via PEG 866, 2000 or 7500, 1 hour exposure; for mortality of E. coli: 1 hour exposure to surface-bound peptide, PEG binding at 23° C
Protocol: as §1, §2
QCM-D Control Experiments: Physical Adsorption of CHY1. Similarly, SiO2-coated sensors were used for physical adsorption of unmodified CHY1 and were prepared as described above. For this experiment there was no APTMS functionalization or PEG flow, thus, after cleaning, the crystals were placed immediately into the QCM-D, PBS (pH 7.2) was used to establish a baseline and 1.25 mL of 10 μM CHY1 solution was introduced. Then, flow was stopped and CHY1 was incubated for 30 min. […]
as §3

[4] = system: epithelial cells; details: cited from earlier work
[5] = system: keratinocyte; details: cited from earlier work

| Molecule | mortality of S. aureus [1] | bactericidal activity against S. aureus compared across tether lengths [1] | mortality of S. aureus after temperature-optimized PEG binding ([1]; PEG 7500 binding at 55° C, back to 23° C for C-CHY1 binding and 1 hour S. aureus incubation) | Chrysophsin-1 attachment ng Voigt-Kelvin ([2]; QCM-D) | Chrysophsin-1 attachment ng Sauerbrey ([2]; QCM-D) | C-CHY1 areal mass (ng/cm^2) Sauerbrey ([2]; QCM-D) | C-CHY1 areal mass (ng/cm^2) Voigt-Kelvin ([2]; QCM-D) | PEG/C-CHY1 layer thickness (nm) Voigt-Kelvin ([2]; QCM-D) | extension of layer: modelled thickness as percent of theoretical maximum thickness ([2]; Voigt-Kelvin thickness vs theoretical maximum) | bactericidal activity against E. coli compared across tether lengths [3] | concentration with significant toxicity against epithelial cells [4] | concentration that negatively affects keratinocyte viability [5] | mortality of E. coli [3] | PEG/C-CHY1 layer thickness (nm) Voigt-Kelvin ([2]; QCM-D, listed as No Tether (PHYS-ADSORB)) | Δm bound to the surface on peptide introduction ([2]; QCM-D, from Δf decrease on peptide flow, before rinse) | peptide remaining adsorbed after rinse ([2]; physical adsorption, after PBS rinse) |
| --- | --- | --- | --- | --- | --- | --- | --- | --- | --- | --- | --- | --- | --- | --- | --- | --- |
| Maleimide PEG N-hydroxysuccinimide ester [PEG 7500] | 64±4.5% | most efficient bactericidal activity; also recorded: highest activity | 91±6.9% | 1870 ± 176 ng | 1753 ± 43.9 ng | 2232 ± 55.0 ng/cm^2 | 2381±223 ng/cm^2 and 2381 ± 224 ng/cm^2 | 21.9±1.86 nm | 38% | most efficient bactericidal activity; also recorded: highest activity | – | – | – | – | – | – |
| CC[C@H](C)[C@H](NC(=O)CN)C(=O)NCC(=O)N[C@@H](C)C(=O)N[C@H](C(=O)N[C@@H](CC(C)C)C(=O)N[C@@H](CCCCN)C(=O)N[C@H](C(=O)N[C@@H](CC(C)C)C(=O)N[C@H](C(=O)N[C@H](C(=O)NCC(=O)N[C@@H](CC(C)C)C(=O)N1CCC[C@H]1C(=O)N[C@@H](C)C(=O)N[C@@H](CC(C)C)C(=O)N[C@H](C(=O)N[C@@H](CO)C(=O)N[C@@H](Cc1c[nH]c2ccccc12)C(=O)N[C@H](C(=O)N[C@@H](CCCCN)C(=O)N[C@@H](CCCNC(=N)N)C(=O)N[C@@H](CCCCN)C(=O)N[C@@H](CCCNC(=N)N)C(=O)N[C@@H](CCC(N)=O)C(=O)N[C@@H](CCC(N)=O)C(N)=O)[C@@H](C)CC)[C@@H](C)CC)[C@@H](C)O)[C@@H](C)O)C(C)C)C(C)C [melittin] | – | – | – | – | – | – | – | – | – | – | 1.2 | – | – | – | – | – |
| Maleimide PEG N-hydroxysuccinimide ester [PEG 2000] | – | lowest ability to kill | – | 2284 ± 113 ng | 2238 ± 60.4 ng | 2850 ± 76.9 ng/cm^2 | 2909±144 ng/cm^2 | 17.6±1.3 nm and 17.6±1.32 nm | – | lowest ability to kill | – | – | – | – | – | – |
| LL-37: human derived cathelicidin peptide | – | – | – | – | – | – | – | – | – | – | – | 10 | – | – | – | – |
| Maleimide PEG N-hydroxysuccinimide ester [PEG 866] | – | – | – | 835.2 ± 168 ng | 874.0 ± 48.8 ng | 1113 ± 62.2 ng/cm^2 | 1063±215 ng/cm^2 | – | – | – | – | – | 46±2.3% | – | – | – |
| FFGWLIKGAIHAGKAIHGLIHRRRH [CHY1, Chrysophsin-1, reference compound] | 56.7±1.1% | – | – | 373.3 ± 58.6 ng | 204.9 ± 7.99 ng | 260.9 ± 10.2 ng/cm^2 | 475.3 ± 74.6 ng/cm^2 | 2.5±0.5 nm | – | – | – | – | 52.3±1.2% | 2.50 ± 0.49 nm | about 0.4 μg | about 50% |
